Where two headings read alike, the source gives them in different places.
Experiments:
[1] = system: hiPSCs differentiating into neural rosette-like cells
Method: (§1) Prior to differentiation, the cells were harvested and dissociated into single cells using Gibco™ TrypLE™ Select (ThermoFisher Scientific; Bleiswijk, Netherlands) for 5 min at 37 °C. Cells were seeded in Matrigel™-coated 24-well plates (ThermoFisher Scientific) in mTeSR™1 containing RevitaCell™ Supplement (ThermoFisher Scientific). […] The cells were cultured in this medium until D3. From D3 until the end of the differentiation protocol (D13) (one-step protocol), cells were cultured in N2B27 medium without ROCK inhibitor or LDN193189. In the case of the replating protocol, cells were replated at D7 and grown in the same medium until day 13. At the end of the differentiation, morphology of the cells was assessed using an Operetta CLS (Revvity) instrument. The expected morphology for each of the lineages, to ensure data acceptance and correct differentiations, is further described in Section 2.9 of the methods section. The trilineage differentiation was replicated in 96-well plates (ThermoFisher Scientific and Revvity Phenoplate) using the same differentiation protocols with an adapted number of cells for the seeding. And termination at D14.
(§2) Cells were harvested, and total RNA was isolated using the Maxwell® RSC simply RNA Cells Kit (cat. no.: #AS1390; Promega) on a Maxwell automated purification instrument (Maxwell RSC 48; Promega). […] Each individual primer was paired with its corresponding fluorophore and quencher and adjusted accordingly depending on gene abundance. Primer and probe sequences are described in Supplementary Table S1.
(§3) Data acceptance was based on the appropriate expression of the assessed biomarker genes in the differentiated populations, at appropriate times during differentiation. Failure to observe the expected temporal expression of key, lineage-specific biomarkers, during the cell fate choices associated with each differentiation protocol, would result in the experiment being invalidated.
(§4) To follow morphological changes throughout the hepatocyte and neural differentiation protocol, brightfield images of the cells were acquired after each medium refresh using an iRiS digital cell imaging microscope (Logos Biosystems) or an Operetta CLS (Revvity) instrument. Images were scored based on visual assessment. Cardiac contractability of cardiomyocytes was evaluated visually using an iRiS digital cell imaging microscope (Logos Biosystems).
(§5) Morphologically, cardiomyocytes are expected to group in fiber-like 3D structures that distribute throughout the entire plate. Aside from morphology, an additional criterion for cardiomyocyte differentiation in each experimental setup is for the contracting mature cardiomyocyte cultures exposed to solvent controls, to reach 75%. […] Neural rosettes are recognized by well-defined cell boundaries and multi-layered cultures. Functional/morphological assessment was completed independently from biomarker data analyses. Morphology scores were confirmed by a second person. Failure to observe the anticipated cell morphology/functionality throughout differentiation would result in invalidation of the experiment. Disruption in the morphology of cardiomyocytes is described as a lack of 3D-fibre-like structures in the cultures as well as a clear lack of contractions. Morphologically aberrant hepatocytes are characterized by a lack of polygonal structures with smaller cytoplasm that in the control cultures and the formation of dark cell-dense structures, commonly indicative of clumps of dead cells with big empty spaces between cell colonies.

[2] = system: hiPSCs differentiating into cardiomyocyte-like cells; test: ReproTracker cardiomyocyte differentiation assay
Method: as §1, §2, §3, §4, §5

[3] = cited from earlier work
[4] = system: hiPSCs differentiating into hepatocyte-like cells; test: ReproTracker hepatocyte differentiation assay
Method: as §1, §2, §3, §4, §5

[5] = system: hiPSCs trilineage differentiation (cardiomyocytes, hepatocytes, neural rosette-like cells)
Excerpt: (§6) In ReproTracker, teratogenicity prediction of test compounds is based on a Weight of Evidence (WoE) approach, which considers both the significant decrease in biomarker expression and the morphological/functional changes following exposure to test compounds throughout differentiation assays.
(§7) This threshold, for any given biomarker, is defined as the average minus one time the standard deviation (SD) of the biomarker expression levels in solvent-exposed control cultures throughout the experiment. Reduced expression of the selected biomarkers below the set threshold in a concentration-dependent manner, upon exposure to a minimum of 2 consecutive non-cytotoxic concentrations would be considered significant (noted as +). A decrease in expression below the threshold without a clear dose-response would lead to an equivocal classification (noted as (+)). An increase in expression or a lack of response would be considered negative (noted as -). Disruption of morphology/functionality of the cultures upon compound exposure at the two highest tested concentrations in all biological replicates is considered as a morphological disruption (noted as +). Absence of significant effects results in a negative score (noted as -).
(§8) For each differentiation assay, the expression of two biomarkers and a morphological/functional read-out are considered. In the hepatocyte and cardiomyocyte differentiation, FOXA2 and BMP4 are considered germ-layer-specific biomarkers, while AFP and MYH6 are considered cell-specific biomarkers, respectively. When applying the WoE approach, the cell-specific biomarkers in hepatocyte and cardiomyocyte differentiation are given higher weight compared to the germ-layer specific biomarkers and morphology/functionality. For the neural differentiation, both PAX6 and NESTIN are given equal weight as they are considered cell-specific markers. In this case, both biomarkers are given higher weight than the morphological read-out.
(§9) Every measurement/observation is assigned a score (positive, negative, or equivocal). […] In the ReproTracker assay, a compound is identified as a teratogen if it receives a positive score in at least one of the trilineage differentiation assays (cardiomyocyte, hepatocyte, or neural differentiation). […] If neither biomarker expression levels nor morphology/functionality are affected in any of the differentiation assays, the response is considered negative.

[6] = system: hiPSCs trilineage differentiation (cardiomyocytes, hepatocytes, neural rosette-like cells); test: ReproTracker trilineage differentiation, overall teratogenicity prediction; details: lowest tested concentration with significant decrease of at least one biomarker, trilineage assay; 'N.d. up to x' given as > x
Excerpt: as §6, §7, §8, §9

[7] = system: hiPSCs differentiating into cardiomyocyte-like cells; details: lineage call; footnote b: previously published data; ref Jamalpoor et al., 2022; cited from earlier work
[8] = system: hiPSCs differentiating into hepatocyte-like cells; details: cited from earlier work
[9] = read-out: Human therapeutic cmax, Table 1 (R3 I (2021), Schulz et al. (2020) and others)
[10] = lineage call, footnote b: previously published data, ref Jamalpoor et al., 2022
[11] = lineage call (positive/equivocal/negative)

| SMILES | ReproTracker results Neural rosette-like cells [1] | ReproTracker results Cardiomyocyte-like cells [2] | Cmax [3, 9] [µM] | ReproTracker results Hepatocyte-like cells [4] | ReproTracker results LOAEL ([5]; human) [µM] | LOAEL compared with respective human therapeutic Cmax ([5]; human) | also measured |
| --- | --- | --- | --- | --- | --- | --- | --- |
| C[C@@H]1C[C@H]2[C@@H]3CCC4=CC(=O)C=C[C@]4(C)[C@@]3(F)[C@@H](O)C[C@]2(C)[C@@]1(O)C(=O)CO [Dexamethasone] | Positive | Negative | 0.1 to 0.7 | Negative | 1.95 | – | – |
| NC(=O)NO [Hydroxyurea] | Positive | Negative | 263 | Positive | – | equal to or below | ReproTracker results LOAEL [6]: ≤2.0 µM |
| Cn1cc[nH]c1=S [Methimazole] | Positive | – | 4.4 to 20.2 | – | – | – | ReproTracker results Cardiomyocyte-like cells [7]: Positive |
| Nc1nc2ncc(CNc3ccc(C(=O)N[C@@H](CCC(=O)O)C(=O)O)cc3)nc2c(=O)[nH]1 [Folic acid] | Negative | – | 0.002 to 0.01 | – | – | – | ReproTracker results LOAEL [6]: N.d. up to 1.95 µM; ReproTracker results Hepatocyte-like cells [8, 10]: Negative |
| COc1cc(C)c(/C=C/C(C)=C/C=C/C(C)=C/C(=O)O)c(C)c1C [Acitretin] | – | – | 0.03 to 0.9 | – | – | equal to or below | ReproTracker results Neural rosette-like cells [1, 11]: Positive; ReproTracker results Cardiomyocyte-like cells [2, 11]: Positive; ReproTracker results Hepatocyte-like cells [4, 11]: Positive; ReproTracker results LOAEL [6]: ≤0.2 µM |
| N[C@@H](CC(=O)N1CCn2c(nnc2C(F)(F)F)C1)Cc1cc(F)c(F)cc1F [Sitagliptin] | Negative | – | 0.1 to 0.9 | – | – | – | ReproTracker results LOAEL [6]: N.d. up to 1000 µM; ReproTracker results Hepatocyte-like cells [8, 10]: Negative; ReproTracker results Cardiomyocyte-like cells [7]: Negative |
| NS(=O)(=O)c1cc2c(cc1Cl)NCNS2(=O)=O [Hydrochlorothiazide] | Negative | – | 0.1 to 0.2 | – | – | – | ReproTracker results Hepatocyte-like cells [8, 10]: Positive; ReproTracker results Cardiomyocyte-like cells [7]: Positive |
| N#C[C@@H]1CCCN1C(=O)CNC12CC3CC(CC(O)(C3)C1)C2 [Vildagliptin] | Positive | Negative | 0.6 to 1 | – | 125 | – | ReproTracker results Hepatocyte-like cells [4, 11]: Negative |
| CC(=O)Oc1ccccc1C(=O)O [Aspirin] | Negative | Negative | 111 to 1110 | Positive | 500 | equal to or below | – |
| CC(=O)CC(c1ccccc1)c1c(O)c2ccccc2oc1=O (stereo not drawn) [Warfarin] | – | – | – | – | – | – | ReproTracker results Neural rosette-like cells [1, 11]: Negative; Cmax ([3]; human, in vivo): 3.2 to 9.7 µM; ReproTracker results LOAEL [6]: 62.5 to 250 µM; ReproTracker results Hepatocyte-like cells [8]: Positive |
| O=C1NC(=O)C(c2ccccc2)(c2ccccc2)N1 [Phenytoin] | Positive | Negative | 39.6 to 79.3 | Positive | 31.3 | equal to or below | NESTIN gene expression at D13 [1]: without affecting; PAX6 gene expression at D7 [1]: downregulated; morphology of neural rosette-like cells [1]: disrupted |
| Cc1ccc(NC(=O)c2ccc(CN3CCN(C)CC3)cc2)cc1Nc1nccc(-c2cccnc2)n1 [Imatinib] | Positive | Negative | 1.5 | – | 0.1 | equal to or below | ReproTracker results Hepatocyte-like cells [4, 11]: Positive |
| NC(=O)c1ncn([C@@H]2O[C@H](CO)[C@@H](O)[C@H]2O)n1 [Ribavirin] | Positive | Negative | 3.2 | Negative | ≤1 | equal to or below | – |
| Nc1ccn([C@@H]2O[C@H](CO)[C@@H](O)[C@@H]2O)c(=O)n1 [Cytarabine] | Positive | Positive | 0.2 to 2.1 | Negative | – | equal to or below | ReproTracker results LOAEL [5]: Positive |
| OC(Cn1cncn1)(Cn1cncn1)c1ccc(F)cc1F [Fluconazole] | Positive | Negative | 6.5 to 19.6 | Negative | 125 | – | NESTIN gene expression at D13 [1]: decreased; PAX6 gene expression at D7 [1]: decreased |
| CC1(C)S[C@@H]2[C@H](NC(=O)[C@H](N)c3ccc(O)cc3)C(=O)N2[C@H]1C(=O)O [Amoxicillin] | Negative | – | 1.4 to 41 | – | – | – | ReproTracker results Cardiomyocyte-like cells [7]: Negative |
| COc1ccccc1Oc1c(NS(=O)(=O)c2ccc(C(C)(C)C)cc2)nc(-c2ncccn2)nc1OCCO [Bosentan] | Negative | Positive | 1.3 to 2.9 | Equivocal | 15.6 | – | – |
| CC1=C(/C=C/C(C)=C/C=C/C(C)=C\C(=O)O)C(C)(C)CCC1 [Isotretinoin] | Positive | Positive | 0.004 to 0.008 | Positive | ≤0.0041 | equal to or below | – |
| Cc1nc(Nc2ncc(C(=O)Nc3c(C)cccc3Cl)s2)cc(N2CCN(CCO)CC2)n1 [Dasatinib] | Positive | Positive | 0.07 | Negative | 0.00003 to 0.00013 | equal to or below | – |
